A short description of series [1]: Pharmacokinetics test in SD rats. It counts as in vivo. To be noted: rat, plasma, male SD rats. The procedure:
Example 22 Pharmacokinetics Test
Experimental animals: six healthy adult male SD rats (purchased from Hunan SJA Laboratory Animal Co. Ltd.) were divided into two groups, three rats in each group, and the two groups were given intravenous injection and oral administration respectively.
Drug preparation: a quantity of a compound of the present invention was weighed, and 5% DMSO, 10% Kolliphor HS15 and 85% saline (0.9%) were added to give target concentrations of the compound solution.
Administration and sample collection: animals were fasted for 12 h before administration, and fed at the time point of 3 hours after the administration. SD rats of one group were given intravenous injection (IV, 1 mg/kg) via hind legs and SD rats of the other group were given oral administration (PO, 5 mg/kg) respectively. Then blood was collected in the rat tail vein at the time point of 0, 0.083, 0.25, 0.5, 1, 2, 4, 6, 8, 24 h respectively, and the blood volume was about 200-400 μL/time point. After the collection of whole blood at each time point, the collected blood was set in K2EDTA anticoagulant tube, and the tube was placed in the incubator with ice packs. All samples were centrifuged for 5 min at 4° C. at 4600 r/min within 15 min. Plasma was separated and collected. The concentrations of different compounds in the plasma of the rats after administration were measured using LC/MS/MS method, and the pharmacokinetic parameters were calculated according to the curve of the drug concentration-time.

The target of series [2] is FXR ligand binding domain (LBD) (Homo sapiens (Human), UniProt Q96RI1). The series can be described thus: Mammalian one hybrid (M1H) GAL4 reporter gene assay in HEK293 cells. It counts as cell-based. To be noted: GAL4 reporter gene test. The text has this: Mammalian one hybrid technology is also called chimeric receptor gene assay. Based on the GAL4 chimera receptor assay, the activity of compounds which mediated activation of FXR was detected by dual luciferase reporter assay. The methods were as follows: cDNA encoding the FXR ligand binding domain (LBD), the yeast GAL4 DNA binding domain (DBD) and the Renilla luciferase DNA were fused to construct a chimera expression plasmid pBIND-FXR (Promega). […] The plasmid pG5Luc (Promega) was used as the reporter plasmid, containing the GAL4 upstream activation sequence (UAS) and the Firefly luciferase receptor gene. All GAL4 reporter gene assays were done in HEK293 cells. Cells were cultured at 37° C., 5% CO2 under humidified conditions. […] The contents were mixed completely and incubated the mixtures for 15 minutes at room temperature. The volume of the transfection mixture was 2.5 μl/well. Trypsinized and diluted the cell slurry at a density of […] (100 μl/well for 96-well plate). Then added required volume of transfection mixture prepared previously into the cell slurry, and dispensed 100 μl/well of the cell slurry into the 96-well plate and incubated the plate for 24 hours at 37° C., 5% CO2 under humidified conditions. Compounds prediluted in complete medium were added into each well and then incubated at 37° C., 5% CO2 under humidified conditions for 18 hours. The firefly and renilla luciferase signal was assayed by Promega's Dual Luciferase Reporter Assay System.
The % Activation value was calculated by the following equation: Activation %=[(X−Min)/(Max−Min)]×100%. “X” is the “F/R” value from compounds. “F/R” means “Firefly/Renilla”. “Min” is the mean “F/R” value from no compound control. “Max” is the mean “F/R” value from reference compound control. Finally, the EC50 value of each compounds were calculated by GraphPrism 5.0.
On the technique in general: A reporter such as luciferase makes a cellular process visible.

Nine compounds from patent US10562910B2, “Nitrogen-containing tricyclic compounds and uses thereof in medicine” (SUNSHINE LAKE PHARMA CO., LTD., priority 2016, dated 2020) can be followed below.

By AUC(0-inf) is commonly meant the area under the concentration-time curve extrapolated to infinity. A word on the AUC(0-t): it is the area under the concentration-time curve up to a stated or last time point. For orientation: Cmax means the peak of the concentration-time curve. The term MRT inf denotes the average time that molecules of a dose stay in the body. What is called Tmax is the time from dosing to the highest level. A word on the clearance: it is a measure of how efficiently the substance is removed, as volume per time. The half-life is how long it takes for the measured level to halve. Lower therefore signals fast loss. Usually bioavailability stands for dose-corrected exposure relative to a reference, in per cent. Read a high bioavailability as good availability. One may read the EC50 as the concentration giving half of the maximal effect.

Chain of FXR ligand binding domain (LBD) (Q96RI1 261-481): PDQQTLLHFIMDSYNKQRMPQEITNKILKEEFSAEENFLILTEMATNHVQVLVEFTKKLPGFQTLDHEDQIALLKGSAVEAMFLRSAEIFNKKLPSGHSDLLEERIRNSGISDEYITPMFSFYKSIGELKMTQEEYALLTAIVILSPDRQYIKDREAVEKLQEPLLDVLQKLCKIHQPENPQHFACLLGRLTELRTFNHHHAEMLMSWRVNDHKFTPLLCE

On to `O=C(O)c1ccc2c(c1)Oc1ccc(OCc3c(-c4c(Cl)cccc4Cl)noc3C3CC3)nc1C(F)=C2` [Example 5, 2-((5-cyclopropyl-3-(2,6-dichlorophenyl)isoxazol-4-yl)methoxy)-11-fluorobenzo[6,7]oxepino[3,2-b]pyridine-7-carboxylic acid], for which, in series [1] (iv 1 mg/kg), the AUC(0-inf) was determined as 1580 ng·h/mL, the AUC(0-t) turned out to be 1580 ng·h/mL, the concentration peaked (Cmax) at 3040 ng/mL and the MRT inf came out at 32.9 min. Also, in series [1] (iv 1 mg/kg), the Tmax was 4.98 min, the clearance is 10.6 mL/min/kg and the half-life is 40.9 min. The Vd in series [1] (iv 1 mg/kg, read-out: Vss) was 0.344 L/kg. In series [1] (po 5 mg/kg), this compound came in with an AUC(0-inf) of 7480 ng·h/mL, an AUC(0-t) of 7450 ng·h/mL, a Cmax of 6430 ng/mL and an MRT inf of 64.2 min. In addition, in series [1] (po 5 mg/kg), the Tmax was found to be 30 min and the half-life is 50.3 min. The bioavailability in series [1] (po 5 mg/kg vs iv 1 mg/kg) was found to be 95%.
`O=C(O)c1ccc2c(c1)Oc1ccc(OCc3c(-c4c(Cl)cccc4Cl)noc3C3CC3)nc1C(C(F)(F)F)=C2` [Example 7, 2-((5-cyclopropyl-3-(2,6-dichlorophenyl)isoxazol-4-yl)methoxy)-11-(trifluoromethyl)benzo[6,7]oxepino[3,2-b]pyridine-7-carboxylic acid] returned an EC50 in series [2] of 11 nM.
In series [2], `O=C(O)c1ccc2c(c1)Oc1ccc(OCc3c(-c4c(Cl)cccc4Cl)noc3C3CC3)nc1C(C(F)(F)F)C2` (centres unmarked) [Example 8, 2-((5-cyclopropyl-3-(2,6-dichlorophenyl)isoxazol-4-yl)methoxy)-11-(trifluoromethyl)-10,11-dihydrobenzo[6,7]oxepino[3,2-b]pyridine-7-carboxylic acid] had an EC50 of 26 nM.
With `O=C(O)c1ccc2c(c1)Oc1ccc(OCc3c(-c4c(Cl)cccc4Cl)noc3C3CC3)nc1C1(CC1)C2` [Example 9, 2-((5-cyclopropyl-3-(2,6-dichlorophenyl)isoxazol-4-yl)methoxy)-10H-spiro[benzo[6,7]oxepino[3,2-b]pyridine-11,1′-cyclopropane]-7-carboxylic acid], in series [2], the EC50 was 2 nM.
For `O=C(O)c1ccc2c(c1)Oc1ccc(OCc3c(-c4c(Cl)cccc4Cl)noc3C3CC3)nc1C(F)(F)C2O` (centres unmarked) [Example 12, 2-((5-cyclopropyl-3-(2,6-dichlorophenyl)isoxazol-4-yl)methoxy)-11,11-difluoro-10-hydroxy-10,11-dihydrobenzo[6,7]oxepino[3,2-b]pyridine-7-carboxylic acid], the EC50 in series [2] was determined as 136 nM. This EC50 is about 68-fold higher than that of the compound before.
The same measure, in the same setting: as for `CC1=Cc2ccc(C(=O)O)cc2Oc2ccc(OCc3c(C4CC4)cnn3-c3c(Cl)cccc3Cl)nc21` [Example 15, 2-((4-cyclopropyl-1-(2,6-dichlorophenyl)-1H-pyrazol-5-yl)methoxy)-11-methylbenzo[6,7]oxepino[3,2-b]pyridine-7-carboxylic acid], the figure is 13 nM; as for `O=C(O)c1ccc2c(c1)Oc1ccc(OCc3c(-c4c(Cl)cccc4Cl)noc3C3CC3)nc1C(C1CC1)=C2` [Example 16, 11-cyclopropyl-2-((5-cyclopropyl-3-(2,6-dichlorophenyl)isoxazol-4-yl)methoxy)benzo[6,7]oxepino[3,2-b]pyridine-7-carboxylic acid], 5 nM; as for `O=C(O)c1ccc2c(c1)Oc1ccc(OCc3c(-c4c(Cl)cccc4Cl)noc3C3CC3)nc1C(C1CC1)C2` (centres unmarked) [Example 17, 11-cyclopropyl-2-((5-cyclopropyl-3-(2,6-dichlorophenyl)isoxazol-4-yl)methoxy)-10,11-dihydrobenzo[6,7]oxepino[3,2-b]pyridine-7-carboxylic acid], 65 nM.
As to `CC1=Cc2nc(OCc3c(-c4c(Cl)cccc4Cl)noc3C3CC3)ccc2Oc2cc(C(=O)O)ccc21` [Example 18, 2-((5-cyclopropyl-3-(2,6-dichlorophenyl)isoxazol-4-yl)methoxy)-10-methylbenzo[6,7]oxepino[3,2-b]pyridine-7-carboxylic acid], the EC50 in series [2] came to 93 nM.
